# Assay results reported in patent publication EP3423441B1, “IODINATED ANALOGS OF CHOLINE, METHODS OF PREPARATION THEREOF, AND USE THEREOF AS MEDICAMENTS” (Univerzita Palackého v Olomouci, priority 2016, dated 2017).
# Like-named read-outs stand apart in the source and are kept apart here.
# How the values were obtained:
# choline transporters [1] = assay: In vitro determination of IC50: inhibition of [^3H]choline chloride accumulation in PC-3 cells; type: cell-based; settings: cell line PC-3 (human prostate carcinoma); [^3H]choline chloride 0.81 × 10^-6 M; 60 min at 37 °C
# Protocol: IC50 value corresponds to a concentration of the given analog of choline which reduces the accumulation of choline chloride, the natural ligand of choline transporterss, to 50 % of the maximum value. For the assay, the tritium labeled choline chloride, i.e. [^3H]choline chloride, was used. The assay was performed in vitro on the cell line PC-3 derived from a human prostate carcinoma, which is known to overexpress choline transporters. […] As the negative control, a cell line of human ovarian carcinoma SKOV3 prepared to the confluence of 90 % in 24-well plates was used.
# The cultivation medium was removed from the thus prepared cells in cultivation plates and the cells were rinsed with phosphate buffered saline (PBS). Subsequently, 0.3 mL of "incubation buffer" (25 mM Tris/HCl, 5.4 mM KCl, 1.8 mM CaCl2, 0.8 mM MgSO4, 5 mM glucose, 140 mM NaCl, pH adjusted to 7.4) was added to the cells. Then 0.1 mL of the solution of the tested substance (analog of choline) in the incubation buffer was added to the PC-3 cells in such concentrations, that after adding [^3H]choline chloride the resulting concentrations of the tested analog would be following: 0 M, 10^-8 M, 10^-7 M, 10^-6 M, 5 × 10^-6 M, 10^-5 M, 10^-4 M, 5 × 10^-4 M, 10^-3 M, 5×10^-3 M. Each concentration was tested in triplicate.
# Subsequently, all cells prepared in this manner (PC-3 and SKOV3) were incubated with the analogs of choline for 15 minutes at the temperature of 37 °C.
# Then 0.1 mL of the solution of the [^3H]choline chloride in the incubation buffer was added to all cell-containing wells, so that 0.1 mL of the solution had the activity of 15 kBq and that the final concentration of the [^3H]choline chloride in the medium with the cells was 0.81 × 10^-6 M. The cells were then incubated at 37 °C for a period of 60 min. After the incubation, all buffer solution was removed from the cells. The cells were rinsed with PBS, which was subsequently removed, and 0.2 mL of aqueous NaOH solution (0.1 M) was added to each well. The cells were incubated with sodium hydroxide for 30 min at 37 °C. The lysate was then homogenized with a pipette and 10 µL of the lysate were used for the determination of protein concentration by bicinchonic acid assay (BCA).
# The remaining lysate (180 µL) was quantitatively transferred into scintillation vials containing a previously prepared scintillation solution (2 mL of the solution in each vial). Each well was then additionally rinsed with 0.2 mL of pure water and this solution was added to the corresponding scintillation vials. Scintillation vials were closed and their content was stirred on a shaker.
# To another three scintillation vials containing scintillation solution (2 mL of the solution in each vial) the standard samples of [^3H]choline chloride were added (i.e. 10 µl of the [^3H]choline chloride solution together with 180 µl of aqueous NaOH solution (0.1 M) and 200 µl of water). The vials were closed and their content was stirred on the shaker.
# Subsequently, radioactivity of each scintillation vial was measured using a liquid scintillation counter (Tri-Carb 2910TR Liquid Scintillation Counter, PerkinElmer). The recorded counts per second (cps) were then used to calculate the accumulation of [^3H]choline chloride in the individual cell samples. […] These values were used to construct a sigmoid curve of dependence between the rate of [^3H]choline chloride accumulation and the competing ligand (analog of choline) concentration(inhibition curve, Figure 2). The IC50 values were calculated from these inhibition curves.
# [2] = Binding to plasmatic proteins; settings: plasma
# in vitro = settings: liver microsomes
# Microsomal stability = settings: hepatic microsomes
# choline transporters [3] = settings: published data, Müller S. A. et al. (2009); cited from earlier work
SMILES,IC50 (choline transporters [1]),fraction unbound [2],microsomal CLint (in vitro),Microsomal stability t1l2 (Microsomal stability),Plasma stability (120 min) (Stability in the plasma),IC50 (choline transporters [3])
"Cc1ccc(S(=O)(=O)[O-])cc1.OCC[N+]1(CCc2ccc(I)cc2)CCCC1 [Example 7, 1-(2-hydroxyethyl)-1-[2-(4-iodophenyl)ethyl]pyrrolidin-1-ium 4-methylbenzenesulfonate]",16 µM,0.833,90.6 µL/min/mg,15.3 min,97.6%,–
"Cc1ccc(S(=O)(=O)[O-])cc1.OC1C[N+]2(CCc3ccc(I)cc3)CCC1CC2 (stereo not drawn) [Example 8, 3-hydroxy-1-[2-(4-iodophenyl)ethyl]quinuclidin-1-ium 4-methylbenzenesulfonate]",120 µM,0.717,39.8 µL/min/mg,34.8 min,89.9%,–
"Cc1ccc(S(=O)(=O)[O-])cc1.OCC[N+]1(Cc2ccccc2I)CCCCC1 [Example 14, 1-(2-hydroxyethyl)-1-(2-iodobenzyl)piperidin-1-ium 4-methylbenzenesulfonate]",190 µM,0.831,22.6 µL/min/mg,61.3 min,80.7%,–
"CC[N+](CC)(CCO)Cc1ccccc1I.Cc1ccc(S(=O)(=O)[O-])cc1 [Example 15, Diethyl-(2-hydroxyethyl)-(2-iodobenzyl)ammonium 4-methylbenzenesulfonate]",8.4 µM,0.814,73.6 µL/min/mg,18.8 min,84.9%,–
"C[N+]1(Cc2ccccc2I)CCCC(O)C1.Cc1ccc(S(=O)(=O)[O-])cc1 (stereo not drawn) [Example 16, 3-hydroxy-1-(2-iodobenzyl)-1-methylpiperidin-1-ium 4-methylbenzenesulfonate]",240 µM,0.956,11.6 µL/min/mg,119.5 min,79.0%,–
"Cc1ccc(S(=O)(=O)[O-])cc1.OCCN1CC[N+](CCO)(Cc2ccccc2I)CC1 [Example 17, 1,4-bis(2-hydroxyethyl)-1-(2-iodobenzyl)piperazin-1-ium 4-methylbenzenesulfonate]",740 µM,0.943,0.8 µL/min/mg,1732.5 min,58.4%,–
"Cc1ccc(S(=O)(=O)[O-])cc1.OC1C[N+]2(Cc3ccccc3I)CCC1CC2 (stereo not drawn) [Example 18, 3-hydroxy-1-(2-iodobenzyl)quinuclidin-1-ium 4-methylbenzenesulfonate]",180 µM,0.903,63 µL/min/mg,22.0 min,73.4%,–
"C[N+](C)(CCO)Cc1ccccc1I.Cc1ccc(S(=O)(=O)[O-])cc1 [Example 19, (2-hydroxyethyl)-(2-iodobenzyl)-dimethylammonium 4-methylbenzenesulfonate]",160 µM,0.661,166 µL/min/mg,8.3 min,91.3%,–
"C[N+]1(C)CCOC(O)(c2ccc(-c3ccc(C4(O)C[N+](C)(C)CCO4)cc3)cc2)C1 (stereo not drawn) [Hemicholinium-3, reference compound]",29 µM,–,–,–,–,17 µM
